{
  "source": "paper PMC11467737",
  "about": "“Osteocalcin binds to a GPRC6A Venus fly trap allosteric site to positively modulate GPRC6A signaling” (FASEB BioAdvances, 2024)",
  "key": {"[1]": {"target": "T1, human GPRC6A isoform 2 (Homo sapiens, UniProt Q5T6X5)", "T1 construct": "expressed in transfected cells; host or cells: HEK-293", "T1 sequence (Q5T6X5 19-751 isoform Q5T6X5-2 limits assumed)": "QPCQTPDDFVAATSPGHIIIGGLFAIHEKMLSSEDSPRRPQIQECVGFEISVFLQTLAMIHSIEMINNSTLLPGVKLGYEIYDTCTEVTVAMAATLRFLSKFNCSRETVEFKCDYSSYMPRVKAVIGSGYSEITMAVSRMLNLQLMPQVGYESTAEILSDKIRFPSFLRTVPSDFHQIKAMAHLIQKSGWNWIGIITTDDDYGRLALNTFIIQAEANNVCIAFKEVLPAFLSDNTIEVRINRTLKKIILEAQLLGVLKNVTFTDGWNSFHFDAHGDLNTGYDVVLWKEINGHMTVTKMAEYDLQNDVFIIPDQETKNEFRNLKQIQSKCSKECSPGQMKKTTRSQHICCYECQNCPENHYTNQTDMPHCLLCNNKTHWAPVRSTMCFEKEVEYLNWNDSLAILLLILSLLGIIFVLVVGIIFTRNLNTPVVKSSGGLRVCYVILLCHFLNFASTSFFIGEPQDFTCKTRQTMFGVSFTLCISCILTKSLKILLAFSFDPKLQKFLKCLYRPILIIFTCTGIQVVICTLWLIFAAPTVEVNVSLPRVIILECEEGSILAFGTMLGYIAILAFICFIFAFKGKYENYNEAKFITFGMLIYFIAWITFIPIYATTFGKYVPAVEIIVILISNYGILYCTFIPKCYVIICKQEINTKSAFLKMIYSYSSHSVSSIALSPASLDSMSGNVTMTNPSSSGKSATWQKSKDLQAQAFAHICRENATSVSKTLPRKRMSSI", "experiment": "cAMP accumulation in HEK-293 cells transfected with human GPRC6A isoform 2", "format": "cell-based", "settings": "HEK-293 transfected with GPRC6A isoform 2; presence of 1 mM calcium; 40 min; Figure 2A", "protocol": "(§1) HEK‐293 transfected with human GPRC6A isoform cDNA plasmids cells (10^5 cells/well)[30] were cultured in 24‐well plates in DMEM supplemented with 10% fetal bovine serum and 1% penicillin/streptomycin (100 U/mL of penicillin and 100 μg/mL of streptomycin) for 48 h followed by 4 h incubation in DMEM/F12 containing 0.1% BSA and 0.5 mM IBMX to achieve quiescence and preventing cAMP degradation. Quiescent cells were treated with vehicle control, various ligands at concentration as indicated for 40 min at 37°C. Then, the reaction was stopped, and the cells lysed with 0.5 mL 0.1 N HCl. cAMP levels were measured by using Cyclic AMP EIA kit (Cayman Chemical; Ann Arbor, MA, USA) following the manufacture's protocol."}, "[2]": {"target": "T2, human GPRC6A isoform 3 (Homo sapiens, UniProt Q5T6X5)", "T2 construct": "expressed in transfected cells; host or cells: HEK-293", "T2 sequence (Q5T6X5 19-855 isoform Q5T6X5-3 limits assumed)": "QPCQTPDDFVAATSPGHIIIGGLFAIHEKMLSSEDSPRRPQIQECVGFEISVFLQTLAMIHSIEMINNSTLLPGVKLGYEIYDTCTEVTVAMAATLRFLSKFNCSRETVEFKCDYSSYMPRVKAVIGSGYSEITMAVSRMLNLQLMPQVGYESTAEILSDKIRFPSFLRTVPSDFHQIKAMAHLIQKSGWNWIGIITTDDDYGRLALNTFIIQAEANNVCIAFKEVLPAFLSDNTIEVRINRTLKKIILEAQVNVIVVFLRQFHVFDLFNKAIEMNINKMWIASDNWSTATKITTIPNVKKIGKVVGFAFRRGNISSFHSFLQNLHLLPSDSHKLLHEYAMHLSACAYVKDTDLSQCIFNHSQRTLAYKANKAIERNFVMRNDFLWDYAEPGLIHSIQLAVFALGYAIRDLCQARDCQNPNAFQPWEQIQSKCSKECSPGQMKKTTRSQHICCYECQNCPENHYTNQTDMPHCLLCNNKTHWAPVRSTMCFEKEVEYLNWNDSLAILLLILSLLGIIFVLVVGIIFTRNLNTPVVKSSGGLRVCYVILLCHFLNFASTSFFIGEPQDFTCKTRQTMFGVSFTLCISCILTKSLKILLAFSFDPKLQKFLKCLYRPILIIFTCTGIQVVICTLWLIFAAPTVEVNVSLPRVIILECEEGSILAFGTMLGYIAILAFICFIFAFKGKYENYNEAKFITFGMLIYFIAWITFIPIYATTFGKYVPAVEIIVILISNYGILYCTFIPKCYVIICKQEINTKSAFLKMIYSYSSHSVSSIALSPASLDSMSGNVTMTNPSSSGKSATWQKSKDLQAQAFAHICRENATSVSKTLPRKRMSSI", "experiment": "cAMP accumulation in HEK-293 cells transfected with human GPRC6A isoform 3", "format": "cell-based", "settings": "HEK-293 transfected with GPRC6A isoform 3, 40 min", "protocol": "as §1"}, "[3]": {"target": "T3, human GPRC6A isoform 1 (Homo sapiens, UniProt Q5T6X5)", "T3 construct": "expressed in transfected cells; host or cells: HEK-293, pcDNA3-hGPRC6A", "T3 sequence (Q5T6X5 19-926)": "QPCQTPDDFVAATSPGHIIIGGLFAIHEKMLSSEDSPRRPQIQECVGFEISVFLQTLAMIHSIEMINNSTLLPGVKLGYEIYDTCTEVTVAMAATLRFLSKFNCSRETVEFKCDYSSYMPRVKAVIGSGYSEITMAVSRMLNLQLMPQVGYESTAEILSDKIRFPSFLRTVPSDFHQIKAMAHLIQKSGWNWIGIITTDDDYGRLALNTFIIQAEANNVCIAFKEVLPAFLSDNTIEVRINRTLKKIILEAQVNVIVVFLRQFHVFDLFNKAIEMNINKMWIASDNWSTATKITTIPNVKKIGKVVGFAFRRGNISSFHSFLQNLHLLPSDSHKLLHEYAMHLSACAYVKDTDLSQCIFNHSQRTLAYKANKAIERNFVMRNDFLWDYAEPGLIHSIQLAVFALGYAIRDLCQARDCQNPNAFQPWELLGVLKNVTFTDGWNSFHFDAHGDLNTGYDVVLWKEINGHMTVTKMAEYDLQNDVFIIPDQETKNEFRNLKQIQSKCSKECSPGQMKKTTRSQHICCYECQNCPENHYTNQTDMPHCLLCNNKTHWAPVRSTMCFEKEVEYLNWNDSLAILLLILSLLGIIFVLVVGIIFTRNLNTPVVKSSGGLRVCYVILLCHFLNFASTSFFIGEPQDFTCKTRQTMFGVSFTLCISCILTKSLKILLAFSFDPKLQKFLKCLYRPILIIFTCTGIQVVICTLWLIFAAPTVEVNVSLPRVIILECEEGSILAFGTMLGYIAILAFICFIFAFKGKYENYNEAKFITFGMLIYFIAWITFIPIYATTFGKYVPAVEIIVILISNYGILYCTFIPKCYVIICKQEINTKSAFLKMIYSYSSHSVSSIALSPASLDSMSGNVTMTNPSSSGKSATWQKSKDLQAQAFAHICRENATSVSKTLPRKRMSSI", "experiment": "ERK activation (phospho-ERK/total ERK ELISA) in HEK-293 cells transfected with human GPRC6A isoform 1 (wild-type)", "format": "cell-based", "settings": "fragments at 20 nM; HEK-293 with pcDNA3-hGPRC6A; 15 min; Figure 3B / S5B", "protocol": "All culture reagents were from Invitrogen (Waltham, MA, USA). Human embryonic kidney HEK‐293 cells were obtained from American Type Culture Collection and cultured in DMEM medium supplemented with 10% fetal bovine serum and 1% Penicillin/Streptomycin (P/S). Briefly, HEK‐293 cells transfected with/without human GPRC6A isoforms cDNA plasmids were starved by overnight incubation in serum‐free DMEM/F12 containing 0.1% bovine serum albumin (BSA) and stimulated with various ligands at different doses. […]"}, "[4]": {"target": "T3, human GPRC6A isoform 1", "experiment": "cAMP accumulation in HEK-293 cells transfected with human GPRC6A isoform 1 (wild-type, full length)", "format": "cell-based", "settings": "fragments at 20 nM; HEK-293 with pcDNA3-hGPRC6A; 40 min; Figure 3C / S5C", "protocol": "as §1"}, "[5]": {"tested_on": "mouse model", "set-up": "method as in PMID 32147363", "settings": "oral or intraperitoneal administration to a mouse model; cited from earlier work"}, "[6]": {"tested_on": "GPRC6A", "set-up": "method as in PMID 32147363", "settings": "cited from earlier work"}},
  "data": [
    {"compound": "N=C(N)NCCC[C@H](N)C(=O)O", "note": "[L‐Arg, L‐Arginine]", "values": [
      {"measurement": "L-Arg stimulation of cAMP accumulation", "setting": "[1]", "result": "loss of L‐Arg stimulation of cAMP"},
      {"measurement": "L-Arg stimulation of cAMP accumulation", "setting": "[2]; presence of 1 mM calcium, Figure 2A", "result": "retained responsiveness"}
    ]},
    {"compound": "C[C@]12CC[C@H]3[C@@H](CCC4=CC(=O)CC[C@@]43C)[C@@H]1CC[C@@H]2O", "note": "[testosterone]", "values": [
      {"measurement": "Testosterone (T) activation, cAMP accumulation", "setting": "[2]; Figure S4", "result": "loss responsive"}
    ]},
    {"compound": "APVPYPDPLEPR [Ocn 8–19, synthesized human Ocn fragment, 12 aa]", "values": [
      {"measurement": "ERK phosphorylation by synthesized human Ocn fragments", "setting": "[3]", "result": "activated GPRC6A"},
      {"measurement": "cAMP accumulation by synthesized human Ocn fragments", "setting": "[4]", "result": "activated GPRC6A"}
    ]},
    {"compound": "WLGAPVPYPDPLEPR", "values": [
      {"measurement": "Effect on fatty liver disease and insulin resistance", "setting": "[5]", "result": "improve fatty liver disease and insulin resistance"},
      {"measurement": "Activation of GPRC6A in vitro", "setting": "[6]", "result": "activate GPRC6A in vitro"}
    ]}
  ]
}
